Columns and labels:
[1] = tested on: mouse syngeneic tumor cell lines (LL2, Hepa1-6, B16F10, CT26, EMT6/P, Renca); experiment: Cell viability (CellTiter-Fluor), all six mouse syngeneic tumor cell lines; format: cell-based; details: 0-25 mM, 72 hours, dose dependent
Method: The sensitivity of mouse syngeneic tumor cell lines to Coenzyme Q10 was evaluated in vitro. Six mouse syngeneic tumor cell lines from different tissue types were exposed to increasing concentrations of Coenzyme Q10 (0-25 mM) at 37° C. for 72 hours. Cell viability was measured using CellTiter-Fluor kit (Promega, Madison, Wis.). Graphs and IC50 values were calculated using GraphPad Prism using data for at least three independent experiments. Mouse syngeneic tumor cell lines evaluated were Lewis lung carcinoma (LL2), hepatoma (Hepa1-6) skin melanoma (B16F10), colon cancer (CT26), mammary gland adenocarcinoma (EMT6/P), and renal adenocarcinoma (Renca). As shown in FIGS. 24A-24F, Coenzyme Q10 reduced viability of all of the tumor cell lines in a dose dependent manner.

[2] = tested on: colon (HT29) cancer cells; experiment: mRNA expression of PD1, PD-L1 and PD-L2 in cancer cells treated with Coenzyme Q10; format: cell-based, human; details: 50 μM Coenzyme Q10, relative to untreated cells (p<0.05; n=3)
Method: (§1) Levels of mRNA expression of the immune checkpoints PD1, PD-L1 and PD-L2 were determined in human breast (MDA-MB231), prostate (LnCAP), ovarian (SKOV-3), colon (HT29), lung (A549), liver (Huh-7), and pancreatic (MIA PaCa-2) cancer cells treated with 50 μM Coenzyme Q10, 100 μM Coenzyme Q10, or the IC50 of Coenzyme Q10 for each cell line.

[3] = tested on: PD-L1 protein on the surface of ovarian cancer cells (SKOV-3); experiment: Flow cytometry of PD-L1 protein on the cancer cell surface; format: cell-based, human; details: SKOV-3, 72 hours after treatment
Method: (§2) Flow cytometry analysis with a fluorescent probe for PD-L1 was used to determine the expression of PD-L1 protein on the surface of various human cancer cell lines. The cells were treated with 100 μM Coenzyme Q10, or the IC50 of Coenzyme Q10 for each cell line. […] The increased PD-L1 levels observed in breast cancer cells in response to Coenzyme Q10 treatment were not due to changes in cell populations.
(§3) Human pancreatic (MIA PaCa-2), ovarian (SKOV-3), and lung (A549) cancer cell lines treated with Coenzyme Q10 were also analyzed by flow cytometry to determine PD-L1 protein expression on the cancer cell surface.

[4] = tested on: PD-L1 protein on the surface of pancreatic cancer cells (MIA PaCa-2); experiment: as above; format: cell-based, human; details: MIA PaCa-2, 72 hours after treatment
Method: as §2, §3

PD-1 = experiment: Inhibitory receptor surface expression on T cells within PBMCs; format: cell-based, human; details: PHA-stimulated T cells, 24 hours, dose dependent
Method: (§4) Expression of the inhibitory receptor proteins PD-1 and CTLA-4 on the surface of T cells within PBMCs was also determined. The cells were treated with Coenzyme Q10 for 24 hours. Expression of immune checkpoint receptors was measured by staining cells with phenotypic markers for CD3/CD8, or CD3/CD4 in combination with antibodies against PD-1 or CTLA-4. Live cells were identified as 7 AAD negative lymphocytes followed by T cell phenotype characterization of total CD3+ T cells, cytotoxic T cells, or helper T cells. PD-1 or CTLA-4 cell surface expression was measured as mean fluorescence intensity on live T cells. Cells from three donors were tested. As shown in FIGS. 20A and 20B, Coenzyme Q10 decreased PD-1 and CTLA-4 expression on the surface of PHA-stimulated T cells in a dose dependent manner.

CTLA-4 = experiment: as above; format: cell-based, human; details: PHA-stimulated T cells, 24 hours, dose dependent
Method: as §4

[5] = tested on: tumor associated macrophages (TAMs) in murine Pan02 pancreatic tumors; experiment: F4/80 IHC pathological scoring of tumor associated macrophages in Pan02 tumors; format: in vivo, mouse
Method: Pancreatic tumor samples from mice treated with different doses of Coenzyme Q10 were analyzed for the presence of tumor associated macrophages (TAMs). TAMs are found in close proximity to or within tumors and support tumor growth. C57B1/6 female mice were inoculated with Pan02 cells. When tumors reached a mean volume of 100 mm^3, animals were randomized into four groups and treated with vehicle control or Coenzyme Q10 (25, 50 or 100 mg/kg) twice daily for 21 days. At the end of the study, tumors were removed and subjected to immunohistochemistry (IHC) analysis for TAMs using the F4/80 marker. All slides were subjected to a pathological scoring. […] As shown in FIGS. 28A and 28B, Coenzyme Q10 decreased TAMs in a dose dependent manner.

[6] = tested on: breast (MDA-MB231), prostate (LnCAP), ovarian (SKOV-3), colon (HT29), lung (A549), liver (Huh-7), and pancreatic (MIA PaCa-2) cancer cells; experiment: mRNA expression of PD1, PD-L1 and PD-L2 in cancer cells treated with Coenzyme Q10 (other treatment groups); format: cell-based, human; details: 50 μM, 100 μM or IC50 of Coenzyme Q10; all groups other than PD-L1 in HT29 at 50 μM
Method: as §1

[7] = tested on: human T cells within PBMCs; experiment: T cell proliferation by Click-iT EdU flow cytometry; format: cell-based; details: 200 μM Coenzyme Q10, 72 hours, EdU final 18 hours
Method: Proliferation of T cells was assessed by flow cytometry using Click-iT® EdU technology (Thermo Fisher Scientific, Waltham, Mass.), a proliferation assay that is optimized for fluorescence microscopy applications. In this assay, the modified thymidine analogue EdU is incorporated into newly synthesized DNA and fluorescently labeled with a bright, photostable Alexa Fluor® dye. PBMCs were obtained from three different human donors. PBMCs were incubated with or without PHA for 72 hours while concurrently treated with Coenzyme Q10 (200 μM). 10 μM of EdU was added for the final 18 hours and stained with Invitrogen Alexa Fluor 488 piclyl azide according to the manufacturer's protocol. Cells were then stained with surface marker antibodies for CD3/CD8, or CD3/CD4 to identify cytotoxic T cells or helper T cells, respectively. Cells were then analyzyed by flow cytometry applying gating strategy.

[8] = tested on: PD-1 on CD3 positive T cells within Balb/c PBMCs; experiment: PD-1 surface expression on murine CD3 positive T cells; format: cell-based, mouse; details: 0-800 μM, 24 hours, mean fluorescence intensity
Method: PD-1 surface expression on CD3 positive T cells within PHA stimulated or unstimulated Balb/c PBMCs was also evaluated. Cells were treated with Coenzyme Q10 (0, 12.5, 50, 200, 400 or 800 μM) for 24 hours and PD-1 expression was determined by gating live CD3 positive T cells. Mean fluorescence intensity values were evaluated in histogram plots for PD-1. Two experiments using two different pools of Balb/c PBMCs and one experiment using C57B1/6 PBMCs were conducted.

[9] = 25 mg/kg twice daily for 21 days
[10] = 50 mg/kg twice daily for 21 days
[11] = 100 mg/kg twice daily for 21 days

COC1=C(OC)C(=O)C(C/C=C(\C)CC/C=C(\C)CC/C=C(\C)CC/C=C(\C)CC/C=C(\C)CC/C=C(\C)CC/C=C(\C)CC/C=C(\C)CC/C=C(\C)CCC=C(C)C)=C(C)C1=O [Coenzyme Q10]
Viability of all of the tumor cell lines [1]: reduced
PD-L1 mRNA expression [2]: significant increase
Amount of PD-L1 protein on the cell surface [3]: small but significant increase
Percentage of cells having PD-L1 protein on their surface [3]: did not significantly change
Amount of PD-L1 protein on the cell surface [4]: significantly increased
Percentage of cells having PD-L1 protein on their surface [4]: significantly increased
PD-1 expression on the surface of T cells (mean fluorescence intensity) (PD-1): decreased
CTLA-4 expression on the surface of T cells (mean fluorescence intensity) (CTLA-4): decreased
Percentage of mice with TAM levels Higher than Control [5, 9]: 0%
Percentage of mice with TAM levels Lower than Control [5, 9]: 20%
Percentage of mice with TAM levels Similar to Control [5, 9]: 80%
Percentage of mice with TAM levels Higher than Control [5, 10]: 0%
Percentage of mice with TAM levels Lower than Control [5, 10]: 85.8%
Percentage of mice with TAM levels Similar to Control [5, 10]: 14.3%
Percentage of mice with TAM levels Higher than Control [5, 11]: 0%
Percentage of mice with TAM levels Lower than Control [5, 11]: 44.4%
Percentage of mice with TAM levels Similar to Control [5, 11]: 55.6%
Tumor associated macrophages (TAMs) in tumors ([5]; 25, 50 or 100 mg/kg twice daily for 21 days): decreased
PD1, PD-L1 and PD-L2 mRNA expression, other treatment groups [6]: no significant differences
Proliferation of PHA-activated cytotoxic T cells [7]: increased
PD-1 expression of PD-1 negative gated CD3+ T cells [8]: does not affect
PD-1 levels on PD-1 high expressing gated CD3+ T cells [8]: increased

Source: patent US20180021270A1, “METHODS FOR THE TREATMENT OF CANCER USING COENZYME Q10 IN COMBINATION WITH IMMUNE CHECKPOINT MODULATORS” (Berg LLC, priority 2016, published 2018)
